From PubChem BioAssay AID179 (DTP/NCI, 2004)
pEC50, pIC50: −log10 of the molar value. Calls of active or inactive are those of the source.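 The calls were made as follows: active = compounds giving half or more protection of infected cells from virus-caused growth loss, again on retest; inactive = the rest.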 Where a SMILES comes first, the peptide text is derived from it. [ ]: non-standard residue; d: D form. The star is where a group is joined. ξ: configuration not given here. Boc = CC(C)(C)OC(=O)*; OBn = c1ccc(CO*)cc1; ξP = O=C(O)C1CCCN1

System: CEM cells HIV-1 protection, formazan growth assay
Assay: NCI AIDS Antiviral Assay
Settings: for pIC50: measured here: growth of uninfected CEM cells
Procedure, shortened: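 Protection of CEM cells against HIV-1 measured as cell growth via soluble formazan read-out, with five concentrations tested on both infected and uninfected cells; failure to protect may reflect toxicity.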

SMILES | pEC50 | pIC50 | outcome
CCOC(=O)C(CC1OCCO1)C1=NC(C)(C)CC(C)O1 (centres undefined) | < 3.70 | < 3.70 | –
CC(=O)NNc1nc(C)c(C(=O)NNC(=O)C(=O)Nc2c(C)cccc2C(C)C)s1 | < 4.22 | 4.28 | –
CC(=O)N=C1N(/C=C2\C(=O)Oc3ccccc3C2=O)C(=O)/C(=C/c2ccc(OC(C)=O)cc2)N1C | < 3.70 | 3.97 | –
Cn1c2ccccc2c(=O)c2c(O)cc3c(c21)C=CC1(CCCC1)O3 | 4.79 | < 3.70 | –
O=C1N(Cc2ccccc2)C2CSCC2N1Cc1ccccc1 (centres undefined) | < 3.70 | 4.06 | –
CC[n+]1c([S-])nn(C)c1-c1cnccn1 | < 3.70 | < 3.70 | –
O=C(CN1CCOCC1)c1ccc2c(c1)oc(=O)n2CCN1CCCC1 | < 3.70 | 4.02 | –
CN1CCC(O)C(CNC23CC4CC(CC(C4)C2)C3)C1 (centres undefined) | 4.01 | 3.75 | –
[N-]=[N+]=NC1(c2ccccc2)C(=O)C(Cl)=C(c2ccccc2)N(c2ccccc2)C1=O (centres undefined) | < 3.70 | 3.90 | –
CCC[CH2][Sn]([CH2]CCC)([O]C(=O)c1ccc(OC)c(OC)c1OC)[O][Sn]([CH2]CCC)([CH2]CCC)[O]C(=O)c1ccc(OC)c(OC)c1OC | < 5.24 | 6.06 | –
Cc1cn(C2CCC(COP(=O)(OCC(=O)C(C)(C)C)OCC(=O)C(C)(C)C)O2)c(=O)[nH]c1=O (centres undefined) | 4.51 | < 3.70 | –
CC(=O)O[C@H]1CCc2c(cc(N)c3c2C(=O)C[C@]2(C)C([C@H](C)CCCC(C)C)CCC32C)C1(C)C (some centres undefined) | < 3.70 | < 3.70 | –
Nc1nc(Br)nc2ncn(C3CC(O)C(CO)O3)c12 (centres undefined) | < 3.70 | 5.13 | –
COc1cc([C@H]2Oc3c(OC)cc(/C=C/C(N)=O)cc3[C@@H]2C(N)=O)ccc1O | < 3.70 | < 3.70 | –
CC(=O)c1ccc(NC(=O)C(=O)C(C#N)CC(C)(C)C=O)cc1 (centres undefined) | < 4.08 | < 4.08 | –
Cc1cc(C)c([O-])c(-[n+]2c(-c3ccccc3)cc(-c3ccccc3)cc2-c2ccccc2)c1 | < 4.77 | 5.54 | –
Cc1nn(C(=O)c2ccccc2O)c2c1C(c1ccco1)SC(N)=N2 (centres undefined) | < 4.70 | 5.91 | –
N#CCc1ccc(C(C#N)/C(CCCC(=O)Nc2cccc([N+](=O)[O-])c2)=N/NC(N)=S)cc1 (centres undefined) | – | – | inactive
NCCCCCC(CCN)SCC1OC(n2cnc3c(N)ncnc32)C(O)C1O (centres undefined) | < 3.70 | 3.97 | –
CC1(O)c2ccccc2CCc2ccccc21 | < 4.49 | < 4.49 | –
CCOP(=O)(OCC)/C(C#N)=C/c1ccc(F)cc1 | < 3.05 | < 3.05 | –

SMILES | pEC50 | pIC50 | outcome
CCCCNC1CCC2(SCCS2)c2[nH]c3ccccc3c21 (centres undefined) | < 3.70 | 5.90 | –
CC1(C)CC2=C(Sc3ccccc3N2)C(=O)C1C(=O)C(=O)Nc1cc(Cl)ccc1Cl (centres undefined) | < 3.83 | 4.19 | –
CC1=C/C(=C2/N=C(N(C)C)SS2)C(C)=N1 | – | – | inactive
OCC1NC(CO)C(O)C1O (centres undefined) | – | – | inactive
CCCC(O)(CCC)C1=NCCN1 | < 3.70 | < 3.70 | –
CN(N)c1cn[nH]c(=O)c1Cl | < 3.70 | < 3.70 | –
COc1ccc2c(c1)C1CCN(C)CC1OC2=O (centres undefined) | – | – | inactive
O=[N+]([O-])c1ccc(S(=O)(=O)c2ccc([N+](=O)[O-])cc2C(F)(F)F)c(C(F)(F)F)c1 | – | – | inactive
Nc1nc(Cl)c(N)c(NCC2(CO)CCCC2)n1 | < 3.70 | 3.99 | –
Cc1ccc(S(=O)(=O)ON2C(=O)c3cccc4cc([N+](=O)[O-])cc(c34)C2=O)cc1 | < 4.20 | < 4.20 | –
O=C1CCC2c3ccccc3NCN12 (centres undefined) | – | – | inactive
Nc1ncnc2c1nc1n2C2OC(CO)C(O)C2O1 (centres undefined) | < 3.47 | < 3.47 | –
Cc1c(NC(=O)CSC(=S)N(C)C)c(=O)n(-c2ccccc2)n1C | 4.05 | < 3.70 | –
O=C(O)C12CC3CC(C1)C2C=C3P(=O)(O)O (centres undefined) | < 2.99 | < 2.99 | –
CC(C)(C)OC(=O)N[C@@H](Cc1ccccc1)C(=O)N1CCCC1C(=O)OCc1ccccc1 (stereo partly drawn) (Boc-Phe-[ξP]-OBn) | < 4.38 | < 4.38 | –
C/C(=N\O)C(CN1CCCCC1)C(c1ccccc1)c1c(O)c2ccccc2oc1=O (centres undefined) | < 4.53 | < 4.53 | –
CC(CC(=O)c1ccccc1)C(Sc1ccccc1)(Sc1ccccc1)Sc1ccccc1 (centres undefined) | < 3.70 | < 4.00 | –
Cn1c(=O)c2c(ncn2CC(=O)N/N=C2\SCC(=O)N2Cc2ccccc2)n(C)c1=O | < 4.13 | < 4.13 | –
CCCCC1(O)CC2CC1C(C)C2(C)C (centres undefined) | < 3.70 | < 3.70 | –
COc1ccccc1C(=O)N(C)c1ccc(Cl)c(C(=O)OC(C)C)c1 | – | – | inactive
COc1ccc(-c2nnc3n(C)c4ccccc4n3c2=O)cc1 | < 4.00 | < 4.00 | –

SMILES | pEC50 | pIC50 | outcome
C=C1C2CCC3(C4C[C@@H]5C6(C)CCCC5([C@H](O4)N4CCO[C@H]46)[C@@H]3C2)C1OC(C)=O (some centres undefined) | < 4.74 | < 4.74 | –
Nc1c(C(=O)O)nnc2ccc(Cl)cc12 | < 3.70 | 3.73 | –
CCc1c(C)c(SC)n(C)c(=O)c1C#N | < 3.70 | 4.16 | –
Cc1ccccc1-n1c(SCC(=O)NC(=O)Nc2cccc(Cl)c2)nc2c(Br)cc(Br)cc2c1=O | < 3.70 | < 3.70 | –
COc1cc2c(cc1OCCCCCN1C(=O)c3cccc4cccc(c34)C1=O)N=C[C@@H]1CCCN1C2=O | < 5.70 | 5.96 | –
CCn1c2ccccc2c2cc(NC(=O)c3c(NCCNCCO)nc(=O)[nH]c3C)ccc21 | < 3.70 | < 3.70 | –
Cc1cn(C2CC(Sc3ccccn3)C(CO)O2)c(=O)[nH]c1=O (centres undefined) | < 3.43 | 3.50 | –
Cc1cc(O)c(C=NC(=S)c2ccncc2)c(=O)o1 | < 3.70 | < 3.70 | –
N#Cc1n[nH]c2nc(=S)sc(N)c12 | < 2.92 | 3.05 | –
Cc1cn([C@H]2CC3C(CON3C)O2)c(=O)[nH]c1=O (some centres undefined) | < 3.70 | < 3.70 | –
COCN1C(=O)[C@@H]2CCCN2C(=O)c2ccc(Cl)cc21 | < 3.70 | < 3.70 | –
CCOC(=O)CCCN(C(=O)c1ccccc1)c1scc(-c2ccccc2)c1C(=O)OCC | < 3.70 | 4.94 | –
CC(=O)OC1C[C@@H](C)C2(C[C@H](O)c3ccoc3)C(=O)OC[C@]13C2CCC(O)C31CO1 (some centres undefined) | < 3.70 | < 3.70 | –
CCOc1cc2c(cc1O)C(=O)C[C@@H]1[C@@H]2CC[C@]2(C)[C@@H](O)CC[C@@H]12 | < 5.70 | 7.10 | –
COCC1OCCN1C (centres undefined) | < 3.70 | < 3.70 | –
COc1cc(C2[C@H]3C(=O)N(c4ccc(Cc5ccc(N6C(=O)[C@@H]7ON(c8ccccc8)C(c8cc(OC)c(OC)c(OC)c8)[C@@H]7C6=O)cc5)cc4)C(=O)[C@H]3ON2c2ccccc2)cc(OC)c1OC (some centres undefined) | < 5.25 | < 5.25 | –
N=C1C(=N)c2ccccc2-c2ccccc21.N=C1C(=N)c2ccccc2-c2ccccc21.[Cl-].[Rh+3].c1ccc(-c2ccccn2)nc1 | – | – | inactive
COC1CC(OC2C(C)OC(OC3C(C)OC(OC4C(O)CC(O[C@H]5CC[C@@]6(C)C(=CC[C@]7(O)[C@@H]6C[C@@H](OC(=O)/C=C/c6ccccc6)[C@@]6(C)[C@]7(O)CC[C@@]6(O)C(C)=O)C5)OC4C)CC3OC)CC2OC)OC(C)C1O (some centres undefined) | < 3.70 | 4.43 | –
O=[N+]([O-])c1cccc(N=Cc2ccc(Cl)cc2)c1 | < 3.70 | 3.91 | –
